Assay results reported in ChEMBL document CHEMBL3882245, “Novel aminopyridine derivatives having aurora a selective inhibitory action” (2008).

Experiment: Cytotoxicity against human HeLaS3 cells assessed as cell growth inhibition at 0.3 nM after 3 days by WST-8 assay
Type: functional
Conditions: HeLa S3, 72 h, read-out: GI

CC(=O)O[C@@]12CO[C@@H]1C[C@H](O)[C@@]1(C)C(=O)[C@H](O)C3=C(C)[C@@H](OC(=O)[C@H](O)[C@@H](NC(=O)OC(C)(C)C)c4ccccc4)C[C@@](O)([C@@H](OC(=O)c4ccccc4)[C@H]21)C3(C)C [DOCETAXEL ANHYDROUS] showed an inhibition of growth at 0.0003 µM of 25.6 to 53.4%.
